By EC50 is commonly meant the midpoint of the concentration-response curve.

For this experiment, the target named is CFTR (Homo sapiens, UniProt P13569). The experiment can be described thus: Membrane potential dye, Enteroid Assay A. The format is cell-based. The conditions noted are these: for Ent. A Max Activity: chloride transport as % of triple combination control (Enteroid Assay A); for EC50: human enteroid cells, 18-24 hours, acute 10 μM forskolin and 300 nM ivacaftor, read-out: Ent. A EC50. As to the method: Base medium (ADF+++) consisted of Advanced DMEM/Ham's F12, 2 mM Glutamax, 10 mM HEPES, […] penicillin/streptomycin.
Intestinal enteroid maintenance medium (IEMM) consisted of ADF+++, 1× B27 supplement, 1× N2 supplement, 1.25 mM N-acetyl cysteine, 10 mM Nicotinamide, 50 ng/mL hEGF, 10 nM Gastrin, 1 μg/mL hR-spondin-1, 100 ng/mL hNoggin, TGF-b type 1 inhibitor A-83-01, 100 μg/mL Primocin, 10 μM P38 MAPK inhibitor SB202190.
Bath 1 Buffer consisted of 1 mM MgCl2, 160 mM NaCl, 4.5 mM KCl, 10 mM HEPES, 10 mM Glucose, 2 mM CaCl2).
Chloride Free Buffer consisted of 1 mM Magnesium Gluconate, 2 mM Calcium Gluconate, 4.5 mM Potassium Gluconate, 160 mM Sodium Gluconate, 10 mM HEPES, 10 mM Glucose.
BathI Dye Solution consisted of Bath 1 Buffer, 0.04% Pluronic F127, 20 μM Methyl Oxonol, 30 μM CaCCinh-A01, 30 μM Chicago Sky Blue.
Chloride Free Dye Solution consisted of Chloride Free Buffer, 0.04% Pluronic F127, 20 μM Methyl Oxonol, 30 μM CaCCinh-A01, 30 μM Chicago Sky Blue.
Chloride Free Dye Stimulation Solution consisted of Chloride Free Dye Solution, 10 μM forskolin, 100 μM IBMX, and 300 nM Compound III.
Human intestinal epithelial enteroid cells were obtained from the Hubrecht Institute for Developmental Biology and Stem Cell Research, Utrecht, The Netherlands and expanded in T-Flasks as previously described (Dekkers J F, Wiegerinck C L, de Jonge H R, Bronsveld I, Janssens H M, de Winter-de Groot K M, Brandsma A M, de Jong N W M, Bijvelds M J C, Scholte B J, Nieuwenhuis E E S, van den Brink S, Clevers H, van der Ent C K, Middendorp S and M Beekman J M. A functional CFTR assay using primary cystic fibrosis intestinal organoids. Nat Med. 2013 July;19(7):939-45.).
3. Enteroid Cell Harvesting and Seeding
Cells were recovered in cell recovery solution, collected by centrifugation at 650 rpm for 5 min at 4° C., resuspended in TrypLE and incubated for 5 min at 37° C. Cells were then collected by centrifugation at 650 rpm for 5 min at 4° C. and resuspended in IEMM containing 10 μM ROCK inhibitor (RI). The cell suspension was passed through a 40 μm cell strainer and resuspended at 1×10^6 cells/mL in IEMM containing 10 μM RI. Cells were seeded at 5000 cells/well into multi-well plates and incubated for overnight at 37° C., 95% humidity and 5% CO2 prior to assay.
4. Membrane Potential Dye, Enteroid Assay A
Enteroid cells were incubated with test compound in IEMM for 18-24 hours at 37° C., 95% humidity and 5% CO2. […] Briefly, cells were washed 5 times in Bath 1 Buffer. Bath 1 Dye Solution was added, and the cells were incubated for 25 min at room temperature. Following dye incubation, cells were washed 3 times in Chloride Free Dye Solution. Chloride transport was initiated by addition of Chloride Free Dye Stimulation Solution and the fluorescence signal was read for 15 min. […] Chloride transport was then expressed as a percentage of the chloride transport following treatment with 3 μM N-[(6-amino-2-pyridyl)sulfonyl]-6-(3-fluoro-5-isobutoxy-phenyl)-2-[(4S)-2,2,4-trimethylpyrrolidin-1-yl]pyridine-3-carboxamide, 3 μM (R)-1-(2,2-difluorobenzo[d][1,3]dioxol-5-yl)-N-(1-(2,3-dihydroxypropyl)-6-fluoro-2-(1-hydroxy-2-methylpropan-2-yl)-1H-indol-5-yl)cyclopropanecarboxamide and 300 nM acute N-[2,4-bis(1,1-dimethylethyl)-5-hydroxyphenyl]-1,4-dihydro-4-oxoquinoline-3-carboxamide triple combination control (% Activity).

SMILES strings stand for the structures. Read-outs that look alike come from different tables or passages of the source.

CFTR, sequence (P13569 with tags, fused parts or gaps DEL508-508): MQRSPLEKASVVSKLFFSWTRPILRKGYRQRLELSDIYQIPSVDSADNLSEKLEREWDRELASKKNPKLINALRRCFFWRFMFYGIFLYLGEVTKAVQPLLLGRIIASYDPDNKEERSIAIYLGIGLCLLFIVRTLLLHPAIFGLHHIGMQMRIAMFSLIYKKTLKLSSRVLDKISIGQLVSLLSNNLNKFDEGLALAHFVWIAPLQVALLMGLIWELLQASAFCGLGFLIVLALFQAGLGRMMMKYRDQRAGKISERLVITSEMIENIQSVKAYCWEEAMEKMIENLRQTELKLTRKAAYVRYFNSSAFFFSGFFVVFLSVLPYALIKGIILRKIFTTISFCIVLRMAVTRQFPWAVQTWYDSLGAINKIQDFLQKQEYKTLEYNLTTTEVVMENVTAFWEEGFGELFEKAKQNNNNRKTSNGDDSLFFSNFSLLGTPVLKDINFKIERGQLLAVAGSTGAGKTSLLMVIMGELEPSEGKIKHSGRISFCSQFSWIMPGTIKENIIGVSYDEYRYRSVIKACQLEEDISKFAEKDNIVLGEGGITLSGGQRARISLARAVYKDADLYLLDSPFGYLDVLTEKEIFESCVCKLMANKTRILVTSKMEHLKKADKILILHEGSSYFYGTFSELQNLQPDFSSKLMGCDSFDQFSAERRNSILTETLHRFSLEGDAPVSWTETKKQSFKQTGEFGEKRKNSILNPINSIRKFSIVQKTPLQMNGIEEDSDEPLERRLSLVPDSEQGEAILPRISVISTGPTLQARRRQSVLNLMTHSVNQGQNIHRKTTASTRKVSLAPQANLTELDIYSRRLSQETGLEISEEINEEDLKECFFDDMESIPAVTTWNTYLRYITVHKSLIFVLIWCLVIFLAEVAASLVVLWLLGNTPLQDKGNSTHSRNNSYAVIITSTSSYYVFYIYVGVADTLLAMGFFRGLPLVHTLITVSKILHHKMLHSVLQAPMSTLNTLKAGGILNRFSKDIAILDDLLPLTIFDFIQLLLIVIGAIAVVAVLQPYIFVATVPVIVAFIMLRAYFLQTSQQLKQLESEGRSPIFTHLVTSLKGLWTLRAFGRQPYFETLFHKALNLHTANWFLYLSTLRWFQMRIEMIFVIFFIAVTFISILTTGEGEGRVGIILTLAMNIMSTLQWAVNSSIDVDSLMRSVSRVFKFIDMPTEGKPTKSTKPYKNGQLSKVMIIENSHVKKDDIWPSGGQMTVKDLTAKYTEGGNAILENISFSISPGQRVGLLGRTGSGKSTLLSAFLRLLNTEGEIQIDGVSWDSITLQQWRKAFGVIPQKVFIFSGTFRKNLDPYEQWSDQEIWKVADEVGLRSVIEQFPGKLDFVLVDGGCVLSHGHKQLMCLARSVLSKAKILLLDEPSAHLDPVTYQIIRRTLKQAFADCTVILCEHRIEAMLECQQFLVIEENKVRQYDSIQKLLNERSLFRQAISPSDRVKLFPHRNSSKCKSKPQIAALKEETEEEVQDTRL

Turning to `Cc1cccc(C)c1-c1cc2nc(n1)NS(=O)(=O)c1cccc(c1)C(=O)N(C)C[C@@H](c1ccc(C(C)(C)C)cc1)O2` (single isomer, unassigned) [Compound 12, 10-(4-tert-butylphenyl)-6-(2,6-dimethylphenyl)-12-methyl-2,2-dioxo-9-oxa-2λ^6-thia-3,5,12,19-tetrazatricyclo[12.3.1.14,8]nonadeca-1(18),4(19),5,7,14,16-hexaen-13-one], under “Table 7”, the “Ent. A Max Activity” value is “++ (++ is 30-60%)” and the EC50 is under 1 µM.

Take `Cc1cccc(C)c1-c1cc2nc(n1)NS(=O)(=O)c1cccc(c1)CN(Cc1cccnc1OCC1CC1)[C@H](CC(C)C)CO2` [Compound 1028]: under “Table 7”, the “Ent. A Max Activity” value is “+++ (+++ is >60%)” and the EC50 was under 1 µM.

On to `Cc1cccc(C)c1-c1cc2nc(n1)NS(=O)(=O)c1cccc(c1)CN(CC1CCOCC1)[C@H](CC(C)C)CO2` [Compound 1041], for which, where the note is “Table 7”, the “Ent. A Max Activity” value is “+++ (+++ is >60%)” and the EC50 is under 1 µM.

For the compound `Cc1cccc(C)c1-c1cc2nc(n1)NS(=O)(=O)c1cccc(c1)C(=O)N(CCC(C)(C)C)[C@H](CC(C)C)CO2` [Compound 429], under “Table 6”, the “Ent. A Max Activity” value was “+++ (+++ is >60%)” and the EC50 is under 1 µM.

Consider `Cc1cccc(C)c1-c1cc2nc(n1)NS(=O)(=O)c1cccc(c1)C(=O)N(CC1CC3C=C[C@@H]1C3)[C@H](CC(C)C)CO2` (stereo partly shown) [Compound 351], for which, for the setting “Table 6”, the “Ent. A Max Activity” value was “+++ (+++ is >60%)” and the EC50 was under 1 µM.

Take `Cc1cccc(C)c1-c1cc2nc(n1)NS(=O)(=O)c1cccc(c1)C(=O)N(Cc1ccc(N3CCC4(CCC4)CC3)nc1)[C@H](CC(C)C)CO2` [Compound 936]: where the note is “Table 7”, the “Ent. A Max Activity” value is “+++ (+++ is >60%)” and the EC50 is under 1 µM.

For `Cc1cccc(C)c1-c1cc2nc(n1)NS(=O)(=O)c1cccc(c1)CN(Cc1ccccc1OC(C)C)[C@H](CC(C)C)CO2` [Compound 1036], for the setting “Table 7”, the “Ent. A Max Activity” value was “++ (++ is 30-60%)” and the EC50 was under 1 µM.

On to `Cc1cccc(C)c1-c1cc2nc(n1)NS(=O)(=O)c1cccc(c1)C(=O)N(CC1CC1)[C@H](CC(C)C)CO2` [Compound 366], for which, where the note is “Table 6”, the “Ent. A Max Activity” value is given as “+++ (+++ is >60%)” and the EC50 is under 1 µM.

Take `Cc1cccc(C)c1-c1cc2nc(n1)NS(=O)(=O)c1cccc(c1)C(=O)N(Cc1ccc(N3CCC(C#N)CC3)nc1)[C@H](CC(C)C)CO2` [Compound 972]: where the note is “Table 7”, the “Ent. A Max Activity” value is on record as “+++ (+++ is >60%)” and the EC50 was under 1 µM.

For `Cc1cccc(C)c1-c1cc2nc(n1)NS(=O)(=O)c1cccc(c1)C(=O)N(Cc1ccccc1)[C@@H](CCC1(C(F)(F)F)CC1)CO2` [Compound 852], under “Table 6”, the “Ent. A Max Activity” value is “++ (++ is 30-60%)” and the EC50 was under 1 µM.

Take `Cc1cccc(C)c1-c1cc2nc(n1)NS(=O)(=O)c1cccc(c1)C(=O)N(Cc1ccc(N3CCC(CO)CC3)nc1)[C@H](CC(C)C)CO2` [Compound 956]: for the setting “Table 7”, the “Ent. A Max Activity” value is “+++ (+++ is >60%)” and the EC50 was under 1 µM.

In the case of `Cc1cccc(C)c1-c1cc2nc(n1)NS(=O)(=O)c1cccc(c1)C(=O)N(Cc1cnn(C)c1)[C@H](CC(C)C)CO2` [Compound 432], for the setting “Table 6”, the “Ent. A Max Activity” value is “+++ (+++ is >60%)” and the EC50 was under 1 µM.

Regarding `Cc1cccc(C)c1-c1cc2nc(n1)NS(=O)(=O)c1cccc(c1)CN(Cc1ccccc1)[C@H](CC(C)C)CO2` [Compound 1044], for the setting “Table 6”, the “Ent. A Max Activity” value is given as “++ (++ is 30-60%)” and the EC50 was under 1 µM.

As to `Cc1cccc(C)c1-c1cc2nc(n1)NS(=O)(=O)c1cccc(c1)CN(Cc1cnc(C3CCCCC3)nc1)[C@H](CC(C)C)CO2` [Compound 1033], for the setting “Table 7”, the “Ent. A Max Activity” value is listed as “++ (++ is 30-60%)” and the EC50 is under 1 µM.

As to `CC[C@H](O)CNc1ccc(CN2C(=O)c3cccc(c3)S(=O)(=O)Nc3nc(cc(-c4c(C)cccc4C)n3)OC[C@H]2CC(C)C)cn1` [Compound 948], for the setting “Table 7”, the “Ent. A Max Activity” value is “+++ (+++ is >60%)” and the EC50 fell in the range of 1 to 3 µM.

For `Cc1cccc(C)c1-c1cc2nc(n1)NS(=O)(=O)c1cccc(c1)C(=O)N(CC1CC13CCOCC3)[C@H](CC(C)C)CO2` (stereo partly shown) [Compound 416], where the note is “Table 7”, the “Ent. A Max Activity” value is “+++ (+++ is >60%)” and the EC50 was under 1 µM.

Take `Cc1cccc(C)c1-c1cc2nc(n1)NS(=O)(=O)c1cccc(c1)C(=O)N(Cc1ccc(N3CCC4(CC3)COC4)nc1)[C@H](CC(C)C)CO2` [Compound 965]: under “Table 7”, the “Ent. A Max Activity” value is recorded as “+++ (+++ is >60%)” and the EC50 was under 1 µM.

In the case of `Cc1cc(CN2C(=O)c3cccc(c3)S(=O)(=O)Nc3nc(cc(-c4c(C)cccc4C)n3)OC[C@H]2CC(C)C)[nH]n1` [Compound 430], for the setting “Table 6”, the “Ent. A Max Activity” value is on record as “+++ (+++ is >60%)” and the EC50 was under 1 µM.

For `Cc1cccc(C)c1-c1cc2nc(n1)NS(=O)(=O)c1cccc(c1)C(=O)N(CCC(C)C)C(CCC1(C(F)(F)F)CC1)CO2` (stereo not shown) [Compound 688], under “Table 6”, the “Ent. A Max Activity” value was “+++ (+++ is >60%)” and the EC50 was under 1 µM.

`Cc1cccc(C)c1-c1cc2nc(n1)NS(=O)(=O)c1cccc(c1)C(=O)N(CCC1CCOCC1)CC(c1ccc(C(C)(C)C)cc1)O2` (stereo not shown) [Compound 342]: where the note is “Table 6”, the “Ent. A Max Activity” value was “+++ (+++ is >60%)” and the EC50 was under 1 µM.

For the compound `Cc1cccc(C)c1-c1cc2nc(n1)NS(=O)(=O)c1cccc(c1)C(=O)N(Cc1ccc(N3CCC(C(C)(C)C)CC3)nc1)[C@H](CC(C)C)CO2` [Compound 941], under “Table 7”, the “Ent. A Max Activity” value is “+++ (+++ is >60%)” and the EC50 is under 1 µM.

Take `CCOc1cc(CN2Cc3cccc(c3)S(=O)(=O)Nc3nc(cc(-c4c(C)cccc4C)n3)OC[C@H]2CC(C)C)ccc1OC` [Compound 1038]: for the setting “Table 7”, the “Ent. A Max Activity” value was “++ (++ is 30-60%)” and the EC50 is under 1 µM.

As for `Cc1cccc(C)c1-c1cc2nc(n1)NS(=O)(=O)c1cccc(c1)C(=O)N(Cc1ccc(N3CCC(N(C)C)CC3)nc1)[C@H](CC(C)C)CO2` [Compound 945], for the setting “Table 7”, the “Ent. A Max Activity” value is on record as “+++ (+++ is >60%)” and the concentration for a half-maximal effect (EC50) was under 1 µM.

For `CNC(=O)c1ccc(CN2C(=O)c3cccc(c3)S(=O)(=O)Nc3nc(cc(-c4c(C)cccc4C)n3)OC[C@H]2CC2(C(F)(F)F)CC2)cc1` [Compound 682], under “Table 7”, the “Ent. A Max Activity” value is “+ (+ is <30%)” and the EC50 was 1 to 3 µM.

Take `COc1cccc(CN2C(=O)c3cccc(c3)S(=O)(=O)Nc3nc(cc(-c4c(C)cccc4C)n3)OC[C@H]2CC(C)C)n1` [Compound 423]: for the setting “Table 6”, the “Ent. A Max Activity” value is reported as “+++ (+++ is >60%)” and the EC50 was under 1 µM.

`Cc1cccc(C)c1-c1cc2nc(n1)NS(=O)(=O)c1cccc(c1)C(=O)N(CCOC(C)(C)C)[C@H](CC(C)C)CO2` [Compound 427]: for the setting “Table 6”, the “Ent. A Max Activity” value was “+++ (+++ is >60%)” and the EC50 was under 1 µM.

Regarding `C=CC1CN(CCC(C)C)C(=O)c2cccc(c2)S(=O)(=O)Nc2nc(cc(-c3c(C)cccc3C)n2)O1` (stereo not shown) [Compound 1012], where the note is “Table 6”, the “Ent. A Max Activity” value is given as “++ (++ is 30-60%)” and the EC50 is under 1 µM.

Consider `Cc1cccc(C)c1-c1cc2nc(n1)NS(=O)(=O)c1cccc(c1)C(=O)N(C)CC(c1ccc(C#N)cc1)O2` (stereo not shown) [Compound 667], for which, for the setting “Table 6”, the “Ent. A Max Activity” value is recorded as “++ (++ is 30-60%)” and the EC50 was 1 to 3 µM.

For the compound `Cc1cccc(C)c1-c1cc2nc(n1)NS(=O)(=O)c1cccc(c1)CN(Cc1ccc3c(c1)OC(F)(F)O3)[C@H](CC(C)C)CO2` [Compound 1032], under “Table 7”, the “Ent. A Max Activity” value is given as “++ (++ is 30-60%)” and the EC50 was under 1 µM.
